In patent publication US12708630B2, “Combined therapy of 4′-thio-5-aza-2′-deoxycytidine and Venetoclax” (PINOTBIO, INC., priority 2021, dated 2026):

Tests used:
Test in all cases: drug activity profiling cytotoxicity
Assay type in all cases: cell-based
SCC-4 = conditions: Homo sapiens; SCC-4 cell line, Head and Neck; read-out: Aza-T-dCyd IC50
In short: (§1)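 First, 200 cell lines were profiled for sensitivity to Aza-T-dCyd by cytotoxicity; then responses were analysed together with genomic features.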

647-V = conditions: Homo sapiens; 647-V cell line, Bladder; read-out: Aza-T-dCyd IC50
In short: as §1

G-361 = conditions: Homo sapiens; G-361 cell line, Skin (Melanoma); read-out: Aza-T-dCyd IC50
In short: as §1

EFM-19 = conditions: Homo sapiens; EFM-19 cell line, Breast; read-out: Aza-T-dCyd IC50
In short: as §1

RPMI-7951 = conditions: Homo sapiens; RPMI-7951 cell line, Skin (Melanoma); read-out: Aza-T-dCyd IC50
In short: as §1

BT20 = conditions: Homo sapiens, BT-20; BT20 cell line, Breast; read-out: Aza-T-dCyd IC50
In short: as §1

Hs 936.T(C1) = Hs 936.T(C1) cell line, Skin (Melanoma); read-out: Aza-T-dCyd IC50
In short: as §1

Cal 27 = conditions: Homo sapiens; Cal 27 cell line, Head and Neck; read-out: Aza-T-dCyd IC50
In short: as §1

HT-1080 = conditions: Homo sapiens; HT-1080 cell line, Sarcoma; read-out: Aza-T-dCyd IC50
In short: as §1

SW900 = conditions: Homo sapiens; SW900 cell line, Lung (NSCLC); read-out: Aza-T-dCyd IC50
In short: as §1

SK-NEP-1 = conditions: Homo sapiens; SK-NEP-1 cell line, Kidney; read-out: Aza-T-dCyd IC50
In short: as §1

HT1376 = conditions: Homo sapiens, HT-1376; HT1376 cell line, Bladder; read-out: Aza-T-dCyd IC50
In short: as §1

Calu6 = conditions: Homo sapiens, Calu-6; Calu6 cell line, Lung (NSCLC); read-out: Aza-T-dCyd IC50
In short: as §1

LS1034 = conditions: Homo sapiens, LS-1034; LS1034 cell line, Colon; read-out: Aza-T-dCyd IC50
In short: as §1

DBTRG-05MG = conditions: Homo sapiens; DBTRG-05MG cell line, CNS (Glioma); read-out: Aza-T-dCyd IC50
In short: as §1

ChaGoK1 = conditions: Homo sapiens, ChaGo-K-1; ChaGoK1 cell line, Lung (NSCLC); read-out: Aza-T-dCyd IC50
In short: as §1

HCT-116 = conditions: Homo sapiens; HCT-116 cell line, Colon; read-out: Aza-T-dCyd IC50
In short: as §1

SK-N-AS = conditions: Homo sapiens; SK-N-AS cell line, CNS (Neuroblastoma); read-out: Aza-T-dCyd IC50
In short: as §1

SU-DHL-4 = conditions: Homo sapiens; SU-DHL-4 cell line, B-cell lymphoma; read-out: Aza-T-dCyd IC50
In short: as §1

Raji = conditions: Homo sapiens; Raji cell line, Burkitt's lymphoma; read-out: Aza-T-dCyd IC50
In short: as §1

DMS53 = conditions: Homo sapiens, DMS-53; DMS53 cell line, Lung (SCLC); read-out: Aza-T-dCyd IC50
In short: as §1

SW1463 = conditions: Homo sapiens; SW1463 cell line, Colon; read-out: Aza-T-dCyd IC50
In short: as §1

PC-3 = conditions: Homo sapiens; PC-3 cell line, Prostate; read-out: Aza-T-dCyd IC50
In short: as §1

OVCAR3 = conditions: Homo sapiens, OVCAR-3; OVCAR3 cell line, Female GU (Ovary); read-out: Aza-T-dCyd IC50
In short: as §1

BV-173 = conditions: Homo sapiens; BV-173 cell line, CML; read-out: Aza-T-dCyd IC50
In short: as §1

SK-MEL-28 = conditions: Homo sapiens; SK-MEL-28 cell line, Skin (Melanoma); read-out: Aza-T-dCyd IC50
In short: as §1

DU145 = conditions: Homo sapiens, DU-145; DU145 cell line, Prostate; read-out: Aza-T-dCyd IC50
In short: as §1

NCI-H508 = conditions: Homo sapiens; NCI-H508 cell line, Colon; read-out: Aza-T-dCyd IC50
In short: as §1

CA46 = conditions: Homo sapiens; CA46 cell line, Burkitt's lymphoma; read-out: Aza-T-dCyd IC50
In short: as §1

HT-29 = conditions: Homo sapiens; HT-29 cell line, Colon; read-out: Aza-T-dCyd IC50
In short: as §1

Compound `Nc1ncn([C@H]2CC(O)[C@@H](CO)S2)c(=O)n1` (stereo partly drawn) [Aza-T-dCyd, 4′-thio-5-aza-2′-deoxycytidine] has an IC50 (SCC-4) of 2860 nM, an IC50 (647-V) of 408 nM and an IC50 (G-361) of 1080 nM. The IC50 (EFM-19) was 3.95 µM, the IC50 (RPMI-7951) was 527 nM and the IC50 (BT20) was greater than 10 µM. For the same compound, the IC50 (Hs 936.T(C1)) was 398 nM, the IC50 (Cal 27) was 319 nM and the IC50 (HT-1080) was 120 nM. It also gave an IC50 (SW900) of 1980 nM, an IC50 (SK-NEP-1) greater than 10 µM and an IC50 (HT1376) of 3.28 µM. It also gave an IC50 (Calu6) of 289 nM, an IC50 (LS1034) of 1410 nM and an IC50 (DBTRG-05MG) greater than 10 µM. For the same compound, the IC50 (ChaGoK1) was 3.41 µM, the IC50 (HCT-116) was 100 nM and the IC50 (SK-N-AS) was 1170 nM. It also gave an IC50 (SU-DHL-4) of 17.5 nM, an IC50 (Raji) of 75.2 nM and an IC50 (DMS53) of 4.22 µM. For the same compound, the IC50 (SW1463) was 303 nM, the IC50 (PC-3) was 441 nM and the IC50 (OVCAR3) was 3.44 µM. For the same compound, the IC50 (BV-173) was 5.32 nM, the IC50 (SK-MEL-28) was 2500 nM and the IC50 (DU145) was 432 nM. For the same compound, the IC50 (NCI-H508) was 542 nM, the IC50 (CA46) was 25.5 nM and the IC50 (HT-29) was 323 nM.
